Test system: statin-treated hypertriglyceridemic patients with cardiovascular disease or at high risk for cardiovascular disease
Assay: REDUCE-IT: safety, treatment-emergent adverse events (incl. bleeding, atrial fibrillation/flutter, gastrointestinal)
[1] = REDUCE-IT safety population, 4 g/day
[2] = serious bleeding TEAE, % of N = 4089
[3] = serious bleeding TEAE, number (%) of N = 4089
[4] = serious bleeding TEAE, patients, N = 4089

CC/C=C\C/C=C\C/C=C\C/C=C\C/C=C\CCCC(=O)OCC [icosapent ethyl, eicosapentaenoic acid ethyl ester]
Serious TEAE (% of N = 4089): (30.6%)
Serious TEAE Leading to Death (% of N = 4089): (2.3%)
Serious TEAE Leading to Withdrawal of Study Drug (% of N = 4089): (2.2%)
Subjects with at Least One TEAE (% of N = 4089): (81.8%)
TEAE Leading to Withdrawal of Study Drug (% of N = 4089): (7.9%)
Pneumonia, serious treatment-emergent adverse event: % of patients (N = 4089, safety population): 2.6%
Pneumonia, serious treatment-emergent adverse event: number of patients (N = 4089, safety population): 105
Anemia, adverse event rate [1]: 4.7%
Atrial fibrillation, adverse event rate [1]: 5.3%
Diarrhea, adverse event rate [1]: 9%
Gastrointestinal adverse events, rate [1]: 33.0%
Peripheral edema, adverse event rate [1]: 6.5%
Atrial fibrillation or flutter requiring hospitalization (prespecified adjudicated tertiary endpoint) (REDUCE-IT, 4 g/day): 3.1%
Fatal bleeding events (REDUCE-IT, 4 g/day): no fatal bleeding events
Gastrointestinal bleeding (serious) (REDUCE-IT, 4 g/day): 1.5%
Serious central nervous system bleeding (REDUCE-IT, 4 g/day): 0.3%
Tolerability (REDUCE-IT, 4 g/day): well tolerated
Treatment-emergent serious adverse events for bleeding, rate (REDUCE-IT, 4 g/day): 2.7%
Gastrointestinal disorders (TEAE, system organ class, number (%) of N = 4089): 1350 (33.0%)
Anemia (TEAE, number (%) of N = 4089): 191 (4.7%)
Angina pectoris (TEAE, number (%) of N = 4089): 200 (4.9%)
Arthralgia (TEAE, number (%) of N = 4089): 313 (7.7%)
Atrial fibrillation (TEAE, number (%) of N = 4089): 215 (5.3%)
Back pain (TEAE, number (%) of N = 4089): 335 (8.2%)
Bronchitis (TEAE, number (%) of N = 4089): 306 (7.5%)
Cataract (TEAE, number (%) of N = 4089): 233 (5.7%)
Chest pain (TEAE, number (%) of N = 4089): 273 (6.7%)
Constipation (TEAE, number (%) of N = 4089): 221 (5.4%)
Cough (TEAE, number (%) of N = 4089): 241 (5.9%)
Diarrhea (TEAE, number (%) of N = 4089): 367 (9.0%)
Dizziness (TEAE, number (%) of N = 4089): 235 (5.7%)
Dyspnea (TEAE, number (%) of N = 4089): 254 (6.2%)
Fatigue (TEAE, number (%) of N = 4089): 228 (5.6%)
Gastroesophageal Reflux Disease (TEAE, number (%) of N = 4089): 124 (3.0%)
Hypertension (TEAE, number (%) of N = 4089): 320 (7.8%)
Influenza (TEAE, number (%) of N = 4089): 263 (6.4%)
Nasopharyngitis (TEAE, number (%) of N = 4089): 314 (7.7%)
Nausea (TEAE, number (%) of N = 4089): 190 (4.6%)
Osteoarthritis (TEAE, number (%) of N = 4089): 241 (5.9%)
Pain in extremity (TEAE, number (%) of N = 4089): 235 (5.7%)
Peripheral edema (TEAE, number (%) of N = 4089): 267 (6.5%)
Pneumonia (TEAE, number (%) of N = 4089): 263 (6.4%)
Upper respiratory tract infection (TEAE, number (%) of N = 4089): 312 (7.6%)
Urinary tract infection (TEAE, number (%) of N = 4089): 253 (6.2%)
Positively Adjudicated Atrial Fibrillation/Flutter (hospitalization for atrial fibrillation or atrial flutter, number (%) of N = 4089): 127 (3.1%)
Serious TEAE (number of subjects, N = 4089): 1252
Serious TEAE Leading to Death (number of subjects, N = 4089): 94
Serious TEAE Leading to Withdrawal of Study Drug (number of subjects, N = 4089): 88
TEAE Leading to Withdrawal of Study Drug (number of subjects, N = 4089): 321
Subjects with at Least One TEAE (number of subjects, Safety population N = 4089): 3343
Aortic Aneurysm Rupture [2]: (0.0%)
Brain Contusion [2]: (0.0%)
Catheter Site Hemorrhage [2]: (0.0%)
Central Nervous System Bleeding [2]: (0.3%)
Cerebral Hemorrhage [2]: (0.0%)
Cystitis Hemorrhagic [2]: (0.0%)
Diverticulitis Intestinal Hemorrhagic [2]: (0.0%)
Diverticulum Intestinal Hemorrhagic [2]: (0.1%)
Duodenal Ulcer Hemorrhage [2]: (0.0%)
Ecchymosis [2]: (0.0%)
Epistaxis [2]: (0.2%)
Esophageal Hemorrhage [2]: (0.0%)
Extravasation Blood [2]: (0.0%)
Gastric Hemorrhage [2]: (0.0%)
Gastric Ulcer Hemorrhage [2]: (0.1%)
Gastrointestinal Angiodysplasia Hemorrhagic [2]: (0.0%)
Gastrointestinal Bleeding [2]: (1.5%)
Gastrointestinal Hemorrhage [2]: (0.6%)
Genital Hemorrhage [2]: (0.0%)
Hemarthrosis [2]: (0.0%)
Hematemesis [2]: (0.1%)
Hematochezia [2]: (0.0%)
Hematoma [2]: (0.0%)
Hematuria [2]: (0.2%)
Hemoptysis [2]: (0.0%)
Hemorrhagic Anemia [2]: (0.1%)
Hemorrhagic Duodenitis [2]: (0.0%)
Hemorrhagic Transformation Stroke [2]: (0.0%)
Hemorrhoidal Hemorrhage [2]: (0.1%)
Hemothorax [2]: (0.0%)
Immune Thrombocytopenic Purpura [2]: (0.0%)
Intra-Abdominal Hemorrhage [2]: (0.0%)
Intracranial Hemorrhage [2]: (0.0%)
Large Intestinal Hemorrhage [2]: (0.0%)
Lower Gastrointestinal Hemorrhage [2]: (0.1%)
Mallory-Weiss Syndrome [2]: (0.0%)
Melaena [2]: (0.1%)
Menorrhagia [2]: (0.0%)
Mouth Hemorrhage [2]: (0.0%)
Other Bleeding [2]: (1.0%)
Pancreatitis Hemorrhagic [2]: (0.0%)
Patients with Bleeding-Related Disorders [2]: (2.7%)
Peptic Ulcer Hemorrhage [2]: (0.0%)
Pericardial Hemorrhage [2]: (0.0%)
Post Procedural Hematoma [2]: (0.0%)
Post Procedural Hematuria [2]: (0.0%)
Post Procedural Hemorrhage [2]: (0.1%)
Rectal Hemorrhage [2]: (0.2%)
Renal Hemorrhage [2]: (0.0%)
Retinal Hemorrhage [2]: (0.0%)
Retroperitoneal Hematoma [2]: (0.0%)
Retroperitoneal Hemorrhage [2]: (0.0%)
Shock Hemorrhagic [2]: (0.0%)
Subarachnoid Hemorrhage [2]: (0.0%)
Subdural Hematoma [2]: (0.2%)
Subdural Hemorrhage [2]: (0.0%)
Traumatic Hematoma [2]: (0.0%)
Traumatic Intracranial Hemorrhage [2]: (0.0%)
Ulcer Hemorrhage [2]: (0.0%)
Upper Gastrointestinal Hemorrhage [2]: (0.1%)
Urinary Bladder Hemorrhage [2]: (0.0%)
Bleeding related disorders [3]: 111 (2.7%)
Central Nervous System Bleeding [3]: 14 (0.3%)
Gastrointestinal Bleeding [3]: 62 (1.5%)
Other Bleeding [3]: 41 (1.0%)
Aortic Aneurysm Rupture [4]: 1
Brain Contusion [4]: 0
Catheter Site Hemorrhage [4]: 0
Central Nervous System Bleeding [4]: 14
Cerebral Hemorrhage [4]: 0
Cystitis Hemorrhagic [4]: 2
Diverticulitis Intestinal Hemorrhagic [4]: 0
Diverticulum Intestinal Hemorrhagic [4]: 3
Duodenal Ulcer Hemorrhage [4]: 2
Ecchymosis [4]: 1
Epistaxis [4]: 7
Esophageal Hemorrhage [4]: 0
Extravasation Blood [4]: 1
Gastric Hemorrhage [4]: 1
Gastric Ulcer Hemorrhage [4]: 3
Gastrointestinal Angiodysplasia Hemorrhagic [4]: 1
Gastrointestinal Bleeding [4]: 62
Gastrointestinal Hemorrhage [4]: 26
Genital Hemorrhage [4]: 1
Hemarthrosis [4]: 0
Hematemesis [4]: 3
Hematochezia [4]: 1
Hematoma [4]: 1
Hematuria [4]: 8
Hemoptysis [4]: 1
Hemorrhagic Anemia [4]: 4
Hemorrhagic Duodenitis [4]: 0
Hemorrhagic Transformation Stroke [4]: 1
Hemorrhoidal Hemorrhage [4]: 3
Hemothorax [4]: 1
Immune Thrombocytopenic Purpura [4]: 0
Intra-Abdominal Hemorrhage [4]: 1
Intracranial Hemorrhage [4]: 0
Large Intestinal Hemorrhage [4]: 1
Lower Gastrointestinal Hemorrhage [4]: 5
Mallory-Weiss Syndrome [4]: 1
Melaena [4]: 3
Menorrhagia [4]: 1
Mouth Hemorrhage [4]: 0
Other Bleeding [4]: 41
Pancreatitis Hemorrhagic [4]: 1
Patients with Bleeding-Related Disorders [4]: 111
Peptic Ulcer Hemorrhage [4]: 1
Pericardial Hemorrhage [4]: 0
Post Procedural Hematoma [4]: 1
Post Procedural Hematuria [4]: 0
Post Procedural Hemorrhage [4]: 5
Rectal Hemorrhage [4]: 10
Renal Hemorrhage [4]: 0
Retinal Hemorrhage [4]: 1
Retroperitoneal Hematoma [4]: 0
Retroperitoneal Hemorrhage [4]: 1
Shock Hemorrhagic [4]: 2
Subarachnoid Hemorrhage [4]: 2
Subdural Hematoma [4]: 9
Subdural Hemorrhage [4]: 2
Traumatic Hematoma [4]: 2
Traumatic Intracranial Hemorrhage [4]: 0
Ulcer Hemorrhage [4]: 1
Upper Gastrointestinal Hemorrhage [4]: 3
Urinary Bladder Hemorrhage [4]: 1

Reference: US20210308089A1, “METHODS OF TREATING AND/OR PREVENTING VIRAL INFECTIONS AND/OR DISEASES CAUSED BY VIRUSES IN A SUBJECT IN NEED THEREOF” (priority 2020, published 2021)
